The text below walks through data of ChEMBL document CHEMBL3102818, “Tocopheramine succinate and tocopheryl succinate: mechanism of mitochondrial inhibition and superoxide radical production” (Bioorg Med Chem, 2014).

Activity calls are given as the source filed them. The calls are words filed in the database; no cut-off is given here.

Data set [1] in a line: Inhibition of bovine mitochondrial electron transport protein complex 2 succinate:DCPIP oxidoreductase activity by spectrophotometry. Set-up: species or system Bos taurus.
For data set [2], the species on record is Bos taurus. The data set can be described thus: (§1) Inhibition of bovine mitochondrial electron transport protein complex 3 dUQH2:cytochrome c oxidoreductase activity by spectrophotometry.
Data set [3] can be described thus: Drug degradation in mouse N18TG2 cells assessed as alpha-TOH formation at 10 nmol after 24 hrs by HPLC analysis. It is filed as ADME, cell-based. As to conditions: n18tg2, 24 h.
The species named for data set [4] is Bos taurus. The data set can be described thus: Induction of superoxide radical generation in bovine succinate-respiring submitochondrial particles assessed as oxidation of CPH after 2 mins by ESR spectroscopy relative to control. It is filed as functional.
The subject of data set [5] is N18TG2. The data set can be described thus: Induction of superoxide radical generation in mouse N18TG2 cells assessed as CMH oxidation at 200 uM after 2 hrs by ESR spectroscopy relative to control. Format: functional, cell-based.
The species named for data set [6] is Bos taurus. Kind of data set: Induction of superoxide radical generation in bovine NADH-respiring submitochondrial particles assessed as oxidation of CPH after 2 mins by ESR spectroscopy relative to control. It is filed as functional.
The test system of data set [7] is N18TG2. The data set can be described thus: Cytotoxicity against mouse N18TG2 cells at 6.25 to 100 uM by MTT assay. It is filed as functional, cell-based.
Data set [8] deals with Liver. The data set can be described thus: Drug degradation in rat liver homogenates assessed as alpha-TOH formation at 500 nmol after 4 hrs by HPLC analysis. Particulars: tissue homogenate. Format: ADME, tissue-based.
In data set [9] the test system is Liver. The data set can be described thus: Drug degradation in rat liver homogenates at 500 nmol after 4 hrs by HPLC analysis. Particulars: tissue homogenate. Format: ADME, tissue-based.
Data set [10] is filed under the species Bos taurus. The data set can be described thus: Induction of superoxide radical generation in bovine succinate-respiring submitochondrial particles assessed as oxidation of CPH at 900 uM after 2 mins by ESR spectroscopy in presence of superoxide dismutase relative to control. It is filed as functional.
Data set [11] is described as follows: as §1. Set-up: species or system Bos taurus.
Data set [12] relates to Liver. The data set can be described thus: Drug degradation in denaturated rat liver homogenates assessed as compound recovery at 500 nmol after 4 hrs by HPLC analysis. Format: ADME, tissue-based. Particulars: tissue homogenate.
The species entered for data set [13] is Bos taurus. The data set can be described thus: Inhibition of oxygen consumption in bovine NADH-respiring submitochondrial particles involving complexes 1,3,4 after 3 mins relative to control. It is filed as functional.
The species named for data set [14] is Bos taurus. The data set can be described thus: Inhibition of oxygen consumption in bovine succinate-respiring submitochondrial particles involving complexes 2,3,4 after 3 mins relative to control. It is filed as functional.
The species entered for data set [15] is Bos taurus. The data set can be described thus: Induction of superoxide radical generation in bovine NADH-respiring submitochondrial particles assessed as oxidation of CPH at 900 uM after 2 mins by ESR spectroscopy in presence of superoxide dismutase relative to control. Format: functional.
The subject of data set [16] is HeLa. The data set can be described thus: Cytotoxicity against human HeLa cells at 100 to 200 uM by MTT assay. Format: functional, cell-based. (Formazan colour is commonly taken as a measure of viable cells.)
For data set [17], the species on record is Bos taurus. The data set can be described thus: Inhibition of bovine mitochondrial electron transport protein complex 1 NADH:dUQ oxidoreductase activity by spectrophotometry.
Data set [18] is filed under the species Bos taurus. The data set can be described thus: Induction of superoxide radical generation in bovine succinate-respiring submitochondrial particles assessed as oxidation of CPH at 50 uM after 2 mins by ESR spectroscopy. It is filed as functional.
Data set [19] is filed under the species Bos taurus. The data set can be described thus: Induction of superoxide radical generation in bovine succinate-respiring submitochondrial particles assessed as oxidation of CPH at 900 uM after 2 mins by ESR spectroscopy in presence of rotenone. Format: functional.
For data set [20], the species on record is Bos taurus. Kind of data set: Induction of superoxide radical generation in bovine NADH-respiring submitochondrial particles assessed as oxidation of CPH at 900 uM after 2 mins by ESR spectroscopy. It is filed as functional.
For data set [21], the species on record is Bos taurus. The data set can be described thus: Induction of superoxide radical generation in bovine succinate-respiring submitochondrial particles assessed as oxidation of CPH at 900 uM after 2 mins by ESR spectroscopy. Format: functional.
Data set [22] is described as follows: Induction of superoxide radical generation in mouse N18TG2 cells assessed as CMH oxidation at 50 uM after 2 hrs by ESR spectroscopy (reference value: 0.40 +/- 0.05 pmol/min). Format: functional.
The species entered for data set [23] is Bos taurus. Kind of data set: Induction of superoxide radical generation in bovine succinate-respiring submitochondrial particles assessed as oxidation of CPH at 36 uM after 2 mins by ESR spectroscopy in presence of rotenone. Format: functional.
The species entered for data set [24] is Bos taurus. Kind of data set: Induction of superoxide radical generation in bovine succinate-respiring submitochondrial particles assessed as oxidation of CPH at 36 uM after 2 mins by ESR spectroscopy. Format: functional.
The species entered for data set [25] is Bos taurus. The data set can be described thus: Induction of superoxide radical generation in bovine NADH-respiring submitochondrial particles assessed as oxidation of CPH at 36 uM after 2 mins by ESR spectroscopy. It is filed as functional.

Usually IC50 stands for the concentration that inhibits the measured activity by half. High values mean weaker potency, low ones greater potency.

For `CC(=O)Oc1c(C)c(C)c2c(c1C)CC[C@@](C)(CCC[C@H](C)CCC[C@H](C)CCCC(C)C)O2`, the half-maximal inhibitory concentration (IC50) in [1] is more than 1000 µM. In addition, the inhibition entry in data set [2] is “Active”. Besides, the Drug degradation in data set [3] came out at 100%. Moreover, the result in data set [4], in [5] and in data set [6] was inactive.
For the molecule `Cc1c(C)c2c(c(C)c1NC(=O)CCC(=O)O)CC[C@@](C)(CCC[C@H](C)CCC[C@H](C)CCCC(C)C)O2`, the result in data set [7] was Active. Further, the half-inhibitory concentration (IC50) in data set [1] was 106 µM; in data set [11], 137 µM. Also, the Stability result is “Stable” in data set [8], “Unstable” in data set [9], “Stable” in data set [3] and “Stable” in data set [12]. The result in data set [10], in data set [4], in [5], in data set [15], in [6] and in data set [16] was inactive. For the same molecule, the inhibition entry in [13] and in [14] was “Dose-dependent effect” in each case. For the same molecule, in data set [17], the inhibition result was “inactive”.
On to `C=C(C)[C@H]1Cc2c(ccc3c2O[C@@H]2COc4cc(OC)c(OC)cc4[C@@H]2C3=O)O1`, for which the outcome in data set [18] was Active.
Consider `Cc1c(C)c2c(c(C)c1OC(=O)CCC(=O)O)CC[C@@](C)(CCC[C@H](C)CCC[C@H](C)CCCC(C)C)O2` [(+)-ALPHA-TOCOPHERYL SUCCINATE], for which the outcome in data set [7], in data set [19], in data set [4], in data set [20], in data set [21] and in data set [5] was Active. The outcome in [6] was Active. The IC50 in [1] turned out to be 42 µM; in data set [11] it was 315 µM. The Stability result in [8] is “Unstable”; in data set [9], “Unstable”; in data set [3], “Unstable”; in data set [12], “Stable”. For the same molecule, the outcome in data set [10], in data set [15] and in [16] was inactive. The inhibition entry in [13] and in data set [14] was “Dose-dependent effect” each time. Moreover, the inhibition result in [17] was “inactive”.
As for `CCCCCC[C@H]1C(=O)O[C@H](C)[C@H](NC(=O)c2cccc(NC=O)c2O)C(=O)O[C@@H](C)[C@@H]1OC(=O)CC(C)C` [ANTIMYCIN A], the Activity in data set [22] is 1.2 pmol/min. Also, the result in [23], in [24] and in [25] was Active.
